These results are taken from patent US10766869B2, “Triazoles for the treatment of demyelinating dieases” (Vertex Pharmaceuticals Incorporated, priority 2015, dated 2020).

Like-named read-outs stand apart in the source and are kept apart here.

The test system of the assay is primary rat mixed cortical cells. The experiment in a line: In vitro myelination assay (MBP positive myelin strands, fold myelin pixels above background). Format: cell-based. Particulars: for fold induction at 1 µM / fold induction at 10 µM: Rattus norvegicus; for fold induction at 1 µM: 1.0 μM compound. The method in brief: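 Fourteen-day treatment of primary P1 rat mixed cortical cultures, re-dosed at days 6 and 10, at 1.0 μM and 10.0 μM. MBP immunofluorescence was imaged at 10× and myelin strands quantified by software, normalised to untreated wells as fold above background.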

Where [1] appears, read: read-out: Fold myelin pixels above background relative to baseline of no added compound.
[2] abbreviates: 10.0 μM compound, read-out: Fold myelin pixels above background relative to baseline of no added compound.
Where [3] appears, read: relative to baseline of no added compound, read-out: Fold myelin pixels above background, 1.0 μM.
The mark [4] stands for this setting: 10.0 μM compound, relative to baseline of no added compound, read-out: Fold myelin pixels above background, 10.0 μM.
[5] abbreviates: relative to baseline of no added compound, read-out: Fold myelin pixels above background.
Setting [6] is: 10.0 μM compound, relative to baseline of no added compound, read-out: Fold myelin pixels above background.

Consider `Cc1cc(Nc2ncn(-c3cnccn3)n2)cc(N2CC(N3CCCOCC3)C2)c1` [Compound 825, N-[3-methyl-5-[3-(1,4-oxazepan-4-yl)azetidin-1-yl]phenyl]-1-pyrazin-2-yl-1,2,4-triazol-3-amine], for which the fold induction at 1 µM under setting [1] fell in the range of 10 to 100. For the same compound, under setting [2], the fold induction at 10 µM lay within 10 to 100.
In the case of `Fc1cc(Nc2ncn(-c3ccc(F)cc3F)n2)cc(NC2CNC2)c1` [Compound 177, N1-(azetidin-3-yl)-N3-[1-(2,4-difluorophenyl)-1,2,4-triazol-3-yl]-5-fluoro-benzene-1,3-diamine], under setting [3], the fold induction at 1 µM was ≤ 1. For the same compound, the fold induction at 10 µM under setting [4] is ≤ 1.
As to `Cc1cc(Nc2ncn(-c3cc(F)cc(F)c3)n2)cc([C@H]2CCN(C3COC3)C2)c1` (single isomer, unassigned) [Compound 473], the fold induction at 1 µM under setting [5] is 100 to 1000. Further, the fold induction at 10 µM under setting [6] lay within 1 to 10.
Turning to `CCCc1cc(Nc2ncn(-c3ccc(F)c(F)c3)n2)cc(N2CCN(C3COC3)CC2)c1` [Compound 559, 1-(3,4-difluorophenyl)-N-[3-[4-(oxetan-3-yl)piperazin-1-yl]-5-propyl-phenyl]-1,2,4-triazol-3-amine], the fold induction at 1 µM under setting [5] fell in the range of 100 to 1000. The fold induction at 10 µM under setting [6] lay within 10 to 100.
Take `Cc1cc(Nc2ncn(-c3cc(F)cc(F)c3)n2)cc(N2CCN(C)C(C)C2)c1` (stereo not drawn) [Compound 119, 1-(3,5-difluorophenyl)-N-[3-(3,4-dimethylpiperazin-1-yl)-5-methyl-phenyl]-1,2,4-triazol-3-amine]: the fold induction at 1 µM under setting [3] was in the range of 100 to 1000. In addition, the fold induction at 10 µM under setting [4] is 10 to 100.
As for `N#Cc1cc(Nc2ncn(-c3cnccn3)n2)cc(N2CCOCC2)c1` [Compound 666, 3-morpholino-5-[(1-pyrazin-2-yl-1,2,4-triazol-3-yl)amino]benzonitrile], the fold induction at 1 µM under setting [5] lay in the range of 10 to 100. The fold induction at 10 µM under setting [6] is 1 to 10.
For `Cc1cc(Nc2ncn(-c3cc(F)cc(F)c3)n2)cc(N2CCN(C3CCCC3)C(=O)C2)c1` [Compound 905, 1-cyclopentyl-4-[3-[[1-(3,5-difluorophenyl)-1,2,4-triazol-3-yl]amino]-5-methyl-phenyl]piperazin-2-one], the fold induction at 1 µM under setting [1] was 1 to 10. Besides, under setting [2], the fold induction at 10 µM was 10 to 100.
With `Cc1cc(Nc2ncn(-c3cccc(C(F)F)c3)n2)nc(N2CC(N3CCOCC3)C2)c1` [Compound 768, N-[1-[3-(difluoromethyl)phenyl]-1,2,4-triazol-3-yl]-4-methyl-6-(3-morpholinoazetidin-1-yl)pyridin-2-amine], the fold induction at 1 µM under setting [5] is ≤ 1. Besides, the fold induction at 10 µM under setting [6] was 1 to 10.
As to `Fc1cc(Nc2ncn(-c3ccc(F)cc3F)n2)cc(N2CCCOCC2)c1` [Compound 343, 1-(2,4-difluorophenyl)-N-[3-fluoro-5-(1,4-oxazepan-4-yl)phenyl]-1,2,4-triazol-3-amine], the fold induction at 1 µM under setting [3] is ≤ 1. Besides, the fold induction at 10 µM under setting [4] is 100 to 1000.
For `COc1cc(Nc2ncn(-c3cc(F)cc(F)c3)n2)cc(N2CCN(C3COC3)CC2)c1` [Compound 310, 1-(3,5-difluorophenyl)-N-[3-methoxy-5-[4-(oxetan-3-yl)piperazin-1-yl]phenyl]-1,2,4-triazol-3-amine], in that order: 1000 to 10000 and 100 to 1000.
Regarding `COCC1CCN(c2cc(C)cc(Nc3ncn(-c4ccncn4)n3)c2)CC1` [Compound 464, N-[3-[4-(methoxymethyl)-1-piperidyl]-5-methyl-phenyl]-1-pyrimidin-4-yl-1,2,4-triazol-3-amine], the fold induction at 1 µM under setting [5] lay in the range of 10 to 100. For the same compound, the fold induction at 10 µM under setting [6] was 100 to 1000.
On to `CCN1CCN(c2cc(C(F)(F)F)cc(Nc3ncn(-c4cc(F)cc(F)c4)n3)n2)CC1` [Compound 654, N-[1-(3,5-difluorophenyl)-1,2,4-triazol-3-yl]-6-(4-ethylpiperazin-1-yl)-4-(trifluoromethyl)pyridin-2-amine], for which the fold induction at 1 µM under setting [5] lay within 1 to 10. In addition, the fold induction at 10 µM under setting [6] lay in the range of 1 to 10.
In the case of `Cc1cc(Nc2ncn(-c3cc(F)cc(F)c3)n2)cc(N2CCN(C(CO)CO)CC2)c1` [Compound 79, 2-[4-[3-[[1-(3,5-difluorophenyl)-1,2,4-triazol-3-yl]amino]-5-methyl-phenyl]piperazin-1-yl]propane-1,3-diol], the fold induction at 1 µM under setting [3] lay in the range of 10 to 100. Moreover, the fold induction at 10 µM under setting [4] was ≤ 1.
For the compound `Cc1cc(Nc2ncn(-c3cc(F)cc(F)c3)n2)cc(N2CC(N3CCN(C)CC3)C2)c1` [Compound 975, 1-(3,5-difluorophenyl)-N-[3-methyl-5-[3-(4-methylpiperazin-1-yl)azetidin-1-yl]phenyl]-1,2,4-triazol-3-amine], under setting [1], the fold induction at 1 µM is 1 to 10. For the same compound, the fold induction at 10 µM under setting [2] is ≤ 1.
Turning to `Cc1cc(Nc2ncn(-c3cccc(F)c3)n2)c(F)c(OC2CCOC2)c1` (single isomer, unassigned) [Compound 1061, N-(2-fluoro-5-methyl-3-tetrahydrofuran-3-yloxy-phenyl)-1-(3-fluorophenyl)-1,2,4-triazol-3-amine], the “Fold myelin pixels above background relative to baseline of no added compound” value (10.0 μM compound) is “++ (>10 to 100x)”. The fold induction at 1 µM under setting [1] was in the range of 10 to 100.
`CCc1cc(Nc2ncn(-c3cccc(C#N)c3)n2)cc(N2CCN(C3COC3)CC2)c1` [Compound 734, 3-[3-[3-ethyl-5-[4-(oxetan-3-yl)piperazin-1-yl]anilino]-1,2,4-triazol-1-yl]benzonitrile]: the fold induction at 1 µM under setting [5] lay within 1 to 10. The fold induction at 10 µM under setting [6] was ≤ 1.
For `Cc1cc(Nc2ncn(-c3cc(F)cc(F)c3)n2)cc([C@@]2(C)CNC(=O)O2)c1` (stereo in doubt) [Compound 658, 5-[3-[[1-(3,5-difluorophenyl)-1,2,4-triazol-3-yl]amino]-5-methyl-phenyl]-5-methyl-oxazolidin-2-one], in that order: 10 to 100 and ≤ 1.
Taken in the same sequence, the figures for `Cc1cc(Nc2ncn(-c3cc(F)cc(F)c3)n2)cc(N2CCOC3(COC3)C2)c1` [Compound 724, 1-(3,5-difluorophenyl)-N-[3-(2,5-dioxa-8-azaspiro[3.5]nonan-8-yl)-5-methyl-phenyl]-1,2,4-triazol-3-amine] were 1 to 10 and 1 to 10.
With `COCCCN1CCCN(c2cc(C)cc(Nc3ncn(-c4cc(F)cc(F)c4)n3)c2)CC1` [Compound 896, 1-(3,5-difluorophenyl)-N-[3-[4-(3-methoxypropyl)-1,4-diazepan-1-yl]-5-methyl-phenyl]-1,2,4-triazol-3-amine], under setting [1], the fold induction at 1 µM is 1 to 10. The fold induction at 10 µM under setting [2] fell in the range of 1 to 10.
`Cc1cc(Nc2ncn(-c3cc(F)cc(F)c3)n2)cc(N2CC3CC2CO3)c1` (stereo not drawn) [Compound 727, 1-(3,5-difluorophenyl)-N-[3-methyl-5-(2-oxa-5-azabicyclo[2.2.1]heptan-5-yl)phenyl]-1,2,4-triazol-3-amine]: the fold induction at 1 µM under setting [5] is 10 to 100. Also, the fold induction at 10 µM under setting [6] was ≤ 1.
Taken in the same sequence, the figures for `Fc1cc(Nc2ncn(-c3ccc(F)cc3F)n2)cc(N2CCCC2)c1` [Compound 497, 1-(2,4-difluorophenyl)-N-(3-fluoro-5-pyrrolidin-1-yl-phenyl)-1,2,4-triazol-3-amine] were ≤ 1 and ≤ 1.
